Laboratory results reported in US20250195520A1, “COMBINATION THERAPY USING A PTPN11 INHIBITOR AND AN EGFR INHIBITOR” (NAVIRE PHARMA, INC., priority 2021, published 2025).

Columns and labels:
[1] = system: DUSP6 mRNA in HCC827-ER1 tumors; experiment: In vivo pharmacodynamic assay, Taqman qRT-PCR of DUSP6 in HCC827-ER1 xenograft tumors; design: species or system mouse
Procedure: In vivo modeling, treatment and data analysis. […] Dosing started ˜3 weeks after the subcutaneous implantation of the tumor cells. Dosing volume was 5 mL/kg for each compound, and was adjusted based on individual mouse weight. Dosing and sample harvesting followed the schedule below. There was a 6-hour interval between the morning dose and the afternoon dose, and tumor/plasma samples were harvested at three timepoints during the 24-hour dosing cycle.

[2] = biological target: T1, PTPN11-E76K mutant enzyme (Homo sapiens, UniProt Q06124, E76K); conditions: e.g. PTPN11-E76K mutant enzyme; stated as 'in certain embodiments'; read-out: IC50 for inhibition of PTPN11; cited from earlier work
T1 sequence (Q06124 1-593 E76K): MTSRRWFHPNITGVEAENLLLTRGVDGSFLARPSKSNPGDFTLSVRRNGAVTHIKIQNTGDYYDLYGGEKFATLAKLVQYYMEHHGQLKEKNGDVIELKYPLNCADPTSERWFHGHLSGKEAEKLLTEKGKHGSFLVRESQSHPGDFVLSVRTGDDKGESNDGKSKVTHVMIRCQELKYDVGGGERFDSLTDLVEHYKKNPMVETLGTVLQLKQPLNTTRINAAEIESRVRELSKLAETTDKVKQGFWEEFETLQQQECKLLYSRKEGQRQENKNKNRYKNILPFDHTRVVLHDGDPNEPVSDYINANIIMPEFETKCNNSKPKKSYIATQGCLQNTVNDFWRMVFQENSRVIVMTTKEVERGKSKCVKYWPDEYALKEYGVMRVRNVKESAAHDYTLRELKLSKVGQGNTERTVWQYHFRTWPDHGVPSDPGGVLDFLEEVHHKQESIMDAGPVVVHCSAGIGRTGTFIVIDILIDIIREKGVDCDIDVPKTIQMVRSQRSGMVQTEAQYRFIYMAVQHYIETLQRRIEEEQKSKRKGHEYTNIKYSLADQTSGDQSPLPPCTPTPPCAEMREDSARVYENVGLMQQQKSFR

HCC4006-OsiR cells [3] = experiment: In vitro clonogenic assay (crystal violet, Bliss score), HCC4006-OsiR; type: cell-based, human; conditions: 14-day clonogenic assay
Procedure: (§1) In vitro clonogenic assay. […] Compounds were prediluted in media at 4x the final concentration, and the final DMSO concentration was 0.2% in 1 mL of media per 24-well. After 12˜14 days of treatment, the plates were stained with crystal violet solution.
(§2) Crystal violet staining, quantification and Bliss score calculation. The 0.1% crystal violet staining solution was prepared by mixing 100 mL of 1% crystal violet solution (Sigma #V5265), 100 mL of 100% ethanol and 800 mL of ddH2O. […] After removal of DPBS, 0.5 mL of 0.1% crystal violet staining solution was added to each 24-well. The plates were incubated at room temperature for 30 min. The staining solution was removed from wells and discarded. Each well was then washed with 1 mL of ddH2O. Afterwards, the plates were dipped in a large bucket filled with tap water 2˜4 times until the supernatant became colorless. […]
(§3) The OD590 readings (multiplied by the dilution factor) were normalized to the average of DMSO treated samples, using Microsoft Excel. The Bliss expectation was calculated with the equation (A+B)−A×B/100, where A and B were the percentage growth inhibition induced by agents A and B at a given dose. Bliss score is the difference between the detected growth inhibition (%) caused by the combination of the two agents and the bliss expectation. […]

HCC4006 cells [4] = experiment: In vitro clonogenic assay (crystal violet, Bliss score), HCC4006; type: cell-based; conditions: Homo sapiens, 336 h; HCC4006, 14-day clonogenic assay
Procedure: as §1, §2, §3

HCC4006 cells [5] = experiment: In vitro 3-day proliferation assay (CellTiter-Glo 2.0), HCC4006; type: cell-based; conditions: Homo sapiens, 72 h, HCC4006 parental cells
Procedure: (§4) Cell lines. The HCC4006 cell line was purchased from ATCC. […] The cells were cultured in RPMI-1640 containing 4 mM glutamax (Thermo Fisher #72400-120)+10% fetal bovine serum (FBS, Sigma #F2442) in 37° C. tissue culture incubator with 5% CO2 (NUAIRE, NU-5510).
(§5) In vitro 3-day proliferation assay. HCC4006 or HCC4006-OsiR cells were plated in 96-well plates (Corning #3603) at 1,500 cells per well in 100 μL of media (RPMI-1640+10% FBS) and allowed to attach overnight. […] Final DMSO concentration was 0.1%. After 3 days of treatment, viable cell numbers were determined using CellTiter-Glo 2.0 cell viability assay (Promega #G9241).
(§6) CellTiter-Glo 2.0 cell viability assay. CellTiter-Glo 2.0 cell viability assay (Promega #G9241) was used to determine the relative viable cell number, following manufacturer's protocols. Briefly, 100 μL CellTiter-Glo reagent was added to each well in the 96-well plate. The plate was put on a VWR advanced 3500 orbital shaker (VWR #89032-096) at 100 rpm shaking for 5 min at room temperature, then incubated at room temperature for 15 min, protected from the light. Afterwards, luminescence was quantified using a PheraStar plate reader (BMG Labtech). The luminescence readings were normalized to the average of DMSO treated samples of each cell line, using Microsoft Excel. Data were plotted in GraphPad Prism 8.0. Non-linear fit was used to generate the dose response curve. […]

HCC4006-OsiR cells [6] = experiment: In vitro 3-day proliferation assay (CellTiter-Glo 2.0), HCC4006-OsiR; type: cell-based, human
Procedure: as §4, §5, §6

Row | SMILES | suppression of DUSP6 mRNA levels ([1]; 6-hour and 8-hour after formula (10b) dosing, 100 mg/kg) | suppression of DUSP6 mRNA levels ([1]; across the three timepoints (best suppression), osimertinib 5 mg/kg, formula (10b) 100 mg/kg) | IC50 [2] [µM] | shift in IC50, HCC4006-OsiR compared with HCC4006 parental cells (HCC4006-OsiR cells [3]) [fold] | IC50 (HCC4006-OsiR cells [3]; Homo sapiens, 336 h, HCC4006-OsiR) [µM] | IC50 (HCC4006 cells [4]) [µM] | IC50 (HCC4006 cells [5]) [µM] | anti-proliferative effect (HCC4006-OsiR cells [6]; 1,000 nM (the highest concentration tested), HCC4006-OsiR, 3-day) | IC50 (HCC4006-OsiR cells [6]; Homo sapiens, 72 h, HCC4006-OsiR cells, 3-day proliferation assay) [µM]
1 | Cc1c(N2CCC3(CC2)CO[C@@H](C)[C@H]3N)nc(C)n(-c2cccc(Cl)c2Cl)c1=O (atropisomer, axis not shown; (Ra)) [Formula (10b), 6-((3S,4S)-4-amino-3-methyl-2-oxa-8-azaspiro[4.5]decan-8-yl)-3-(Ra)-(2,3-dichlorophenyl)-2,5-dimethylpyrimidin-4 (3H)-one] | over 90% | suppresses DUSP6 mRNA levels | ≤ 0.05 |  |  |  |  |  | 
2 | C=CC(=O)Nc1cc(Nc2nccc(-c3cn(C)c4ccccc34)n2)c(OC)cc1N(C)CCN(C)C [Osimertinib] |  |  |  | 20 | 0.257 ± 0.241 | 0.0122 ± 0.0025 | 0.027 ± 0.0079 | no anti-proliferative effect | > 1
